# “And” between values parts separate entries of the source, which are not always exact repeats. Identical values can stand only once. Bridge positions count the residues as written; N and C are the ends. Ends that are not written are not given here. Peptide text beside a SMILES is read from it. * marks the point of attachment. 125I = [125I]*
# B1: Peptide A (peptide)
# peptide: DFDMLRCMLGRVYRPCWQV
# modifications: disulfide 7-16 (inferred)
# B2: Salmon Peptide B (peptide)
# peptide: DTMRCMVGRVYRPCWEV
# B3: [^125I] Peptide A (peptide)
# peptide: DFDMLRCMLGRVY(125I)RPCWQV
# modifications: disulfide 7-16 (inferred)
# How the values were obtained:
# [1] = system: CHO cells stably transfected with a nGPCR-x expression vector; experiment: Intracellular calcium measurement using FLIPR, positive controls; assay type: cell-based, Chinese Hamster; conditions: A23187 10 μM, ATP 4 μM
# Method: Changes in intracellular calcium levels are another recognized indicator of G protein-coupled receptor activity, and such assays can be employed to screen for modulators of nGPCR-x activity. For example, CHO cells stably transfected with a nGPCR-x expression vector are plated at a density of 4×10^4 cells/well in Packard black-walled, 96-well plates specially designed to discriminate fluorescence signals emanating from the various wells on the plate. The cells are incubated for 60 minutes at 37 C. in modified Dulbecco's PBS (D-PBS) containing 36 mg/L pyruvate and 1 g/L glucose with the addition of 1% fetal bovine serum and one of four calcium indicator dyes (Fluo-3™ AM, Fluo-4™ AM, Calcium Green™-1 AM, or Oregon Green™ 488 BAPTA-1 AM), each at a concentration of 4 μM. […]
# A calcium response is initiated by the addition of one or more candidate receptor agonist compounds, calcium ionophore A23187 (10 μM; positive control), or ATP (4 μM; positive control). Fluorescence is measured by Molecular Device's FLIPR with an argon laser (excitation at 488 nm). […] Basal fluorescence of cells was measured for 20 seconds prior to addition of candidate agonist, ATP, or A23187, and the basal fluorescence level was subtracted from the response signal. The calcium signal is measured for approximately 200 seconds, taking readings every two seconds. […]
# SLC-1 gene product = conditions: cited from earlier work
# [2] = intracerebroventricular injection; cited from earlier work
# [3] = in vivo; cited from earlier work
# nGPCR-51 [4] = target: T1, nGPCR-51 (Homo sapiens, UniProt Q969V1); experiment: Intracellular calcium measurement using FLIPR, nGPCR-51-transfected HEK293 cells; assay type: cell-based; conditions: fluo-4, FLIPR, read-out: EC50, calcium mobilization
# T1 construct: expressed in transfected cells
# T1 sequence (Q969V1 whole entry): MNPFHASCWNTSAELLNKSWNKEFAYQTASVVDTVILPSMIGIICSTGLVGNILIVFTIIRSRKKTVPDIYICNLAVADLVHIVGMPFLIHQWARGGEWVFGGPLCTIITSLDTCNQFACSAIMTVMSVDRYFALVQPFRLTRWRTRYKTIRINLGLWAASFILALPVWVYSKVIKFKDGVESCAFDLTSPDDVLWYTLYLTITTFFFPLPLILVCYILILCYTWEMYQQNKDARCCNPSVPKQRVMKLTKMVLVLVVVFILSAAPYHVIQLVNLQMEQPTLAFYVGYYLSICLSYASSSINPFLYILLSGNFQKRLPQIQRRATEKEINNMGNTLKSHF
# Method: (§1) HEK293 cells were transiently transfected with an expression vector for nGPCR-51 and empty vector using Lipofectamine plus (Gibco) according to the manufacturer's instructions. The next day, the cells were seeded into 96-well plates at 25,000 cells per well. The following day, cells were loaded with 1 uM Fluo-4-acetoxymethyl fluorescent indicator dye (Molecular Probes) in MEM (minimal essential media) containing 0.1% bovine serum albumin, 0.04% pluronic acid and 2.5 mM probenecid for 30 minutes at 37 C. The cells were washed with pre-warmed (37 C.) assay buffer (Hanks buffer containing 15 mM HEPES, 2.5 mM probenecid and 0.1% bovine serum albumin). Assay buffer (100 ul) was added to each well and plates were incubated at 37 C. for 15 minutes. Various concentrations (0.03 pM-10 nM) of human Peptide A or salmon Peptide B were added and fluorescence produced by fluo-4 (a calcium sensitive dye) was measured every second for 150 seconds on a fluorometric imaging plate reader (FLIPR1; Molecular Devices). Human Peptide A and salmon Peptide B-induced calcium mobilization in nGPCR-51-transfected cells with EC50 values of 3 nM and 6 nM, respectively. Human Peptide A and salmon Peptide B had no effect on vector-transfected cells.
# nGPCR-51 [5] = target: T1, nGPCR-51; experiment: NFkB-Luciferase reporter gene assay, nGPCR-51 (Seq51)-transfected N7 (HOS) cells; assay type: cell-based; conditions: 5-hr incubation, 2 separate experiments, read-out: EC50, luciferase expression
# Method: nGPCR-51 was transfected in N7 cells, stable HOS (human osteosarcoma) cells expressing NFkB-Luciferase reporter gene Briefly, LipofectAMINE, PLUS reagent, and 4 μg DNA were added to cells in Opti-MEM. After 4 hours, serum-containing medium was added to each plate. Twenty-four hour after transfection the cells were trypsinized and seeded in COSTAR white 96-well plate at a cell density of about 20,000 cells per well. Another 24 hours later the culture medium was replaced with fresh growth medium and Peptide A was added. After 5-hr incubation with Peptide A, the medium was aspirated and 100 μL diluted Steady Glo was added. The plates were gently shake at room temperature for 30 minutes and luminescence determined by TopCount at the SPC mode.
# vector-transfected cells = experiment: Intracellular calcium measurement using FLIPR, empty vector control HEK293 cells; assay type: cell-based, human; conditions: 0.03 pM-10 nM
# Method: as §1
# [6] = injections of the peptide; cited from earlier work
# [7] = injections into the medial preoptic area of the hypothalamus of rats; cited from earlier work
# nGPCR-51 [8] = target: T1, nGPCR-51; experiment: Aequorin luminescence assay, COS 7 cells co-transfected with nGPCR-51 and mtAequorin; assay type: cell-based; conditions: nGPCR-51 expressing COS 7 cells
# Method: Agonist activation of receptors that couple to the Gq subtype of G proteins will lead to the release of intracellular calcium. The photoprotein aequorin emits a characteristic luminescence in the presence of calcium and may be expressed in cells along with the receptor of interest in order to report agonist signalling. Peptide A was tested for the ability to activate nGPCR-51 using an assay for aequorin. Peptide A, a cyclic peptide via a disulfide bond between the Cys residues, has the following amio acid sequence: Asp Phe Asp Met Leu Arg Cys Met Leu Gly Arg Val Tyr Arg Pro Cys Trp Gln Val (SEQ ID NO: 183). Preferably, Peptide A is used in a solution containing 0.17M acetic acid, or the like, and a stabilizer such as a 0.2% BSA:acetonitrile 90:10. […] After the coelenterazine loading incubation, the cells are counted and diluted to 1×10^6 cells/ml in assay buffer. […] The instrument is programmed to dispense 50 μl cell suspension into each well, one well at a time, and immediately read luminescence for 20 seconds. […] Data are analyzed with SlideWrite, using the equation y=a^0*a^1/(x+a^1)+a^2 where a^0 is the maximum response minus the baseline; a^1 is the EC50; and a^2 is the […].
# [9] = central injections in rats; cited from earlier work
# [10] = intracerebroventricular injection, rats; cited from earlier work
# nGPCR-51 [11] = target: T2, nGPCR-51 (human (H. sapiens), UniProt Q969V1 1-340); experiment: cell-based or functional assay
# T2 sequence (Q969V1 whole entry): as above
# nGPCR-51 [12] = target: T2, nGPCR-51; experiment: saturation radioligand binding, membranes of COS 7 cells transiently expressing nGPCR-51, filtration
# Method: HEK 293 or COS 7 cells transiently expressing nGPCR-51, or CHO K-I cells stable expressing nGPCR-51, were grown to sub-confluence (2 days post-transfection for transients), harvested from flasks in Dulbecco's PBS and pelleted by low speed centrifugation (2500 rpm) for 10 minutes. Cell pellets were homogenized in 10 ml tissue buffer (50 mM Hepes, 10 mM MgCl₂, 2 mM EGTA, 1 μg/ml aprotinin, 1 μg/ml leupeptin hemisulfate, 1 μg/ml pepstatin A, pH 7.0) using a dounce, 10 strokes. Homogenate was centrifuged at 47,000× g for 15 minutes. Membrane pellet was resuspended in 1 ml tissue buffer using the dounce, 10 strokes. An aliquot of the membrane preparation was used to determine protein concentration. For measurement of saturation binding, 10 μg of cell membranes were incubated with various concentrations of [¹²⁵I] Peptide A (iodinated by routine procedures via the Tyr residue) in 300 μl binding assay buffer (tissue buffer plus 0.15 mM Bacitracin and 0.1% ovalbumin) for 90 minutes at room temperature in 96-well plates. Non-specific binding was defined by the inclusion of 1 μM Peptide A. After the binding incubation, plates were harvested onto GF/C filters presoaked in 0.3% non-fat dry milk. […] Filter plates were then counted in a Packard Topcount™ 96-well microplate scintillation counter. Data were analyzed using GraphPad Prism (San Diego, Calif.) and Kd and Bmax values were calculated. […]
molecule,measurement,setting,value
Nc1ncnc2c1ncn2[C@@H]1O[C@H](COP(=O)(O)OP(=O)(O)OP(=O)(O)O)[C@@H](O)[C@H]1O [ATP],increase of calcium signal above baseline levels,[1],200%
CNc1ccc2oc(C[C@H]3O[C@@]4(CC[C@H]3C)O[C@H]([C@H](C)C(=O)c3ccc[nH]3)[C@H](C)C[C@H]4C)nc2c1C(=O)O [Peptide A23187],increase of calcium signal above baseline levels,[1],200%
"CSCC[C@@H]1NC(=O)[C@@H](NC(=O)[C@H](CCCNC(=N)N)NC(=O)[C@H](CC(C)C)NC(=O)[C@H](CCSC)NC(=O)[C@H](CC(=O)O)NC(=O)[C@H](Cc2ccccc2)NC(=O)[C@@H](N)CC(=O)O)CSSC[C@@H](C(=O)N[C@@H](Cc2c[nH]c3ccccc23)C(=O)N[C@@H](CCC(N)=O)C(=O)N[C@H](C(=O)O)C(C)C)NC(=O)[C@@H]2CCCN2C(=O)[C@H](CCCNC(=N)N)NC(=O)[C@H](Cc2ccc(O)cc2)NC(=O)[C@H](C(C)C)NC(=O)[C@H](CCCNC(=N)N)NC(=O)CNC(=O)[C@H](CC(C)C)NC1=O [Peptide A, Asp Phe Asp Met Leu Arg Cys Met Leu Gly Arg Val Tyr Arg Pro Cys Trp Gln Val]",activation of SLC-1 G-protein coupled receptor,SLC-1 gene product,potently activated
same,conditioning amplitude of the second of a pair of auditory evoked potentials recorded from the hippocampus,[2],decrease in the conditioning amplitude
same,effect on increases in the conditioning amplitude induced by alpha MSH,[2],reverses the increases in the conditioning amplitude
same,passive avoidance performance,[3],alter passive avoidance performance
same,EC50,nGPCR-51 [4],3 nM
same,EC50,nGPCR-51 [5],1.6 nM and 1.7 nM
same,effect on calcium mobilization in vector-transfected cells,vector-transfected cells,no effect
same,female sexual receptivity,[6],stimulated female sexual receptivity
same,"time spent in open arms, elevated plus maze",[7],decreases in time spent in open arms
same,EC50,nGPCR-51 [8],~40 nM
same,"maximum response, aequorin luminescence",nGPCR-51 [8],52 fold over baseline
same,peak circadian ACTH levels,[9],reduction in peak circadian ACTH levels
same,stress-induced ACTH secretion,[9],inhibit stress-induced ACTH secretion
same,food intake,[10],increase in food intake
"CSCC[C@@H]1NC(=O)[C@@H](NC(=O)[C@H](CCCNC(=N)N)NC(=O)[C@H](CCSC)NC(=O)[C@@H](NC(=O)[C@@H](N)CC(=O)O)[C@@H](C)O)CSSC[C@@H](C(=O)N[C@@H](Cc2c[nH]c3ccccc23)C(=O)N[C@@H](CCC(=O)O)C(=O)N[C@H](C(=O)O)C(C)C)NC(=O)[C@@H]2CCCN2C(=O)[C@H](CCCNC(=N)N)NC(=O)[C@H](Cc2ccc(O)cc2)NC(=O)[C@H](C(C)C)NC(=O)[C@H](CCCNC(=N)N)NC(=O)CNC(=O)[C@H](C(C)C)NC1=O [salmon Peptide B, Asp Thr Met Arg Cys Met Val Gly Arg Val Tyr Arg Pro Cys Trp Glu Val] (HELM PEPTIDE1{D.T.M.R.C.M.V.G.R.V.Y.R.P.C.W.E.V}$PEPTIDE1,PEPTIDE1,5:R3-14:R3$$$V2.0; N-terminus and C-terminus assumed)",EC50,nGPCR-51 [4],6 nM
same,EC50,nGPCR-51 [5],~25 nM
same,effect on calcium mobilization in vector-transfected cells,vector-transfected cells,no effect
B1,"aequorin luminescence, EC50",nGPCR-51 [11],~40 nM
same,"aequorin luminescence, maximum response",nGPCR-51 [11],52 fold over baseline
same,"calcium mobilization (FLIPR, fluo-4, HEK293 cells), EC50",nGPCR-51 [11],3 nM
B2,"calcium mobilization (FLIPR, fluo-4, HEK293 cells), EC50",nGPCR-51 [11],6 nM
same,"luciferase expression (NFkB-Luciferase reporter, N7 cells), EC50",nGPCR-51 [11],~25 nM
B3,Kd,nGPCR-51 [12],0.254 nM
